pIC50: −log10 of the molar value. Read-outs that look alike come from different tables or passages of the source.

Usually pIC50 stands for the negative decadic logarithm of the IC50, by convention in mol/L. A low value points to a large IC50. By % Inhibition is commonly meant the change of the read-out against control, counted positive when it falls.

The target in this assay is CB1 (mutant) (Homo sapiens, UniProt P21554). The experiment in a line: R-SAT functional receptor assay, CB1 (mutant, truncated after amino acid 417). The assay is classed as cell-based. Particulars: R-SAT CB1; for Emax / IC50 / % Inhibition: Appendix A; for Emax / % Inhibition: receptor form not stated, relative to SR141716 (100%); for Emax: read-out: % Inhibition; for IC50 / pIC50: receptor form (mutant or wild-type) not stated; for IC50: read-out: pIC50 (converted); for pIC50: pIC50, Appendix A.
CB1 (mutant), sequence (P21554 1-417, change not shown): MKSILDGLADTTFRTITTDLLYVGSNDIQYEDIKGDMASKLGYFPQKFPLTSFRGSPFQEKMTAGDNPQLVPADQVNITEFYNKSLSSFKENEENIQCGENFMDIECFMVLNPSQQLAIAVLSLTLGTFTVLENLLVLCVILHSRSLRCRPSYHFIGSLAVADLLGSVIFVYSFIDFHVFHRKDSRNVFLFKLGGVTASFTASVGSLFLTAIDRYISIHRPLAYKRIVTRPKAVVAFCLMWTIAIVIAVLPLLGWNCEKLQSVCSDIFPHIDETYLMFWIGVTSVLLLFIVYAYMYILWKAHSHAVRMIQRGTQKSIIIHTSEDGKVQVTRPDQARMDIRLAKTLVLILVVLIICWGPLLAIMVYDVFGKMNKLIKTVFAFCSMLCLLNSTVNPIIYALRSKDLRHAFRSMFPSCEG

On to `CCOC(=O)N1CCC(NC(=O)c2ccc3c(c2)N=C(C2CCCCC2)c2ccccc2S3)CC1` [drawing 814], for which the Emax was 95%. `Cc1cccc(C2=Nc3cc(C(=O)NCCC(F)(F)F)ccc3Sc3ccccc32)n1` [drawing 815]: the IC50 was 0.0126 µM and the Emax is 93%. As for `O=C(NNCC(F)(F)F)c1ccc2c(c1)N=C(c1ccc(Cl)cc1)c1ccccc1S2` [drawing 816], the Emax came to 81%. Take `O=C(NN1CCCCC1)c1ccc2c(c1)N=C(c1ccc(F)c(Cl)c1)c1ccccc1S2` [drawing 817]: the IC50 was 0.0126 µM and the Emax came to 108%.

`COCCNC(=O)c1ccc2c(c1)N=C(c1ccc(Cl)s1)c1ccccc1S2` [drawing 819]: the IC50 is 0.0126 µM and the Emax was 103%. For `O=C(NC1CCC(F)(F)CC1)c1ccc2c(c1)N=C(c1ccc(F)cc1)c1ccccc1S2` [drawing 821], in that order: 0.0126 µM and 91%.

Take `O=C(NN1CCCCC1)c1ccc2c(c1)N=C(c1ccc(Cl)s1)c1ccccc1S2` [drawing 823]: the Emax is 97% and the negative logarithm of the IC50 (pIC50) is 7.90.

On to `O=C(NCCc1cccnc1)c1ccc2c(c1)N=C(c1ccc(Cl)c(Cl)c1)c1ccccc1S2` [drawing 825], for which the IC50 was 0.0126 µM and the Emax stood at 104%. On to `O=C(NCCC(F)(F)F)c1ccc2c(c1)N=C(c1ccc(F)cc1)c1ccccc1S2` [drawing 827], for which the IC50 is 0.0126 µM and the Emax is 98%. Take `CCCCNC(=O)c1ccc2c(c1)N=C(c1cccc(Cl)c1)c1cc(F)ccc1S2` [drawing 829]: the IC50 is 0.0126 µM and the Emax worked out at 105%. For `O=C(NCc1cccc(Cl)c1)c1ccc2c(c1)N=C(c1ccc(F)cc1)c1ccccc1S2(=O)=O` [drawing 833], in that order: 0.0126 µM and 108%. Consider `COc1ccc(C2=Nc3cc(C(=O)NCC(C)C)ccc3Sc3ccccc32)cc1` [drawing 835], for which the IC50 is 0.0126 µM and the Emax was found to be 118%.

With `O=C(NCc1cccc(Cl)c1)c1ccc2c(c1)N=C(c1ccc(Cl)cc1)c1cc(F)ccc1S2` [drawing 837], the IC50 is 0.0126 µM and the Emax was 110%.

As to `O=C(NCCc1ccccc1)c1ccc2c(c1)N=C(c1ccc(F)cc1)c1ccccc1S2` [drawing 839], the IC50 was 0.0126 µM and the Emax is 103%. With `O=C(Cc1ccccc1)NNC(=O)c1ccc2c(c1)N=C(c1ccc(F)cc1)c1ccccc1S2` [drawing 840], the IC50 is 0.158 µM and the Emax turned out to be 98%. Regarding `CCCNC(=O)c1ccc2c(c1)N=C(c1ccc(F)cc1)c1ccccc1S2` [drawing 841], the IC50 was 0.0126 µM and the Emax was found to be 95%. The matching figures for `O=C(NC1CCCCC1)c1ccc2c(c1)N=C(c1cccc(Cl)c1)c1ccccc1S2` [drawing 843]: 0.0126 µM and 99%. On to `O=C(NC1CCCCC1)c1ccc2c(c1)N=C(c1ccc(Cl)cc1)c1ccccc1S2` [drawing 844], for which the IC50 was 0.158 µM and the “% Inhibition” value is given as 97%. Consider `O=C(NN1CCCCC1)c1ccc2c(c1)N=C(c1ccc(F)cc1)c1ccccc1S2` [drawing 845], for which the “% Inhibition” value amounted to 97%. As for `Clc1ccc(C2=Nc3cc(-c4ncc[nH]4)ccc3Sc3ccccc32)cc1` [drawing 846], the IC50 was 0.158 µM and the Emax was determined as 109%. With `C[C@@H]1CCC[C@H](C)N1NC(=O)c1ccc2c(c1)N=C(c1cccc(Cl)c1)c1ccccc1S2` [drawing 847], the Emax turned out to be 100% and the pIC50 was 7.90.

Turning to `COCCNC(=O)c1ccc2c(c1)N=C(c1cccc(Cl)c1)c1ccccc1S2` [drawing 849], the IC50 is 0.0126 µM and the Emax stood at 110%. As for `CCOC(=O)c1ccc(C2=Nc3cc(C(=O)NCc4cccnc4)ccc3Sc3ccccc32)cc1` [drawing 850], the IC50 is 0.158 µM and the Emax came out at 73%. On to `CCCNC(=O)c1ccc2c(c1)N=C(c1ccc(Cl)cc1F)c1ccccc1S2` [drawing 851], for which the IC50 was 0.0126 µM and the Emax amounted to 101%. For `COc1ccc(C2=Nc3cc(C(=O)NC4CCCC4)ccc3Sc3ccccc32)cc1` [drawing 852], in that order: 0.158 µM and 103%. For `Cc1ccsc1C1=Nc2cc(C(=O)NCc3ccco3)ccc2Sc2ccccc21` [drawing 855], in that order: 0.0126 µM and 100%. As for `O=C(NCCc1cccnc1)c1ccc2c(c1)N=C(c1cccc(Cl)c1)c1ccccc1S2` [drawing 857], the IC50 is 0.0126 µM and the Emax was found to be 100%. For `O=C(NCc1ccco1)c1ccc2c(c1)N=C(c1ccccc1F)c1ccccc1S2` [drawing 859], the Emax came out at 100% and the pIC50 is 7.90. Take `O=C(NN1CCCCC1)c1ccc2c(c1)N=C(C1CCCCC1)c1ccccc1S2` [drawing 861]: the “% Inhibition” value is 100%.

For `O=C(NN1CCCCC1)c1ccc2c(c1)N=C(c1ccc(Cl)cc1)c1ccccc1S2` [drawing 863], the “% Inhibition” value is recorded as 103%.

As to `CCN(CCNC(=O)c1ccc2c(c1)N=C(C1CCCCC1)c1ccccc1S2)c1ccccc1` [drawing 865], the IC50 is 0.0158 µM and the Emax came to 105%. As to `O=C(NN1CCCCCC1)c1ccc2c(c1)N=C(c1ccc(Cl)cc1F)c1ccccc1S2` [drawing 867], the IC50 was 0.0158 µM and the Emax is 102%.

Regarding `Cc1cccc(C2=Nc3cc(C(=O)NC4CCC(F)(F)CC4)ccc3Sc3ccccc32)n1` [drawing 869], the IC50 is 0.0158 µM and the Emax amounted to 74%. For `O=C(NCCCC(F)(F)F)c1ccc2c(c1)N=C(c1ccccn1)c1ccccc1S2` [drawing 871], in that order: 0.0158 µM and 117%.

Turning to `Cc1cnc(-c2ccc3c(c2)N=C(c2ccc(Cl)cc2)c2ccccc2S3)[nH]1` [drawing 872], the IC50 was 0.2 µM and the Emax stood at 88%.

`CCCCNC(=O)c1ccc2c(c1)N=C(c1ccc(Cl)s1)c1cc(F)ccc1S2` [drawing 873]: the IC50 is 0.0158 µM and the Emax was 99%. The matching figures for `CCOC(=O)c1ccc(C2=Nc3cc(C(=O)NCc4ccccn4)ccc3Sc3ccccc32)cc1` [drawing 874]: 0.2 µM and 100%.

Take `CCCCNS(=O)(=O)c1ccc2c(c1)N=C(c1ccc(Cl)cc1)c1ccccc1S2` [drawing 875]: the IC50 is 0.0158 µM and the Emax is 106%. As to `O=C(NN1CCCCCC1)c1ccc2c(c1)N=C(c1ccc(Cl)cc1Cl)c1ccccc1S2` [drawing 876], the IC50 was 0.2 µM and the Emax was found to be 82%. The matching figures for `O=C(NCc1ccccc1)c1ccc2c(c1)N=C(C1CCCCC1)c1ccccc1S2` [drawing 877]: 0.0158 µM and 97%.

As for `CC(CNC(=O)c1ccc2c(c1)N=C(c1cccc(Cl)c1)c1cc(F)ccc1S2)c1ccccc1` (stereo not shown) [drawing 879], the IC50 is 0.0158 µM and the Emax turned out to be 113%. Turning to `CCCCNC(=O)c1ccc2c(c1)N=C(c1sccc1C)c1ccccc1S2` [drawing 881], the Emax came out at 91% and the pIC50 was 7.80. For the molecule `O=C(NN1CCCCCC1)c1ccc2c(c1)N=C(c1cccc(F)c1)c1ccccc1S2` [drawing 883], the “% Inhibition” value was found to be 96% and the pIC50 was 7.80.

Turning to `CCCC1=Nc2cc(C(=O)NCCN(CC)c3ccccc3)ccc2Sc2ccccc21` [drawing 885], the IC50 was 0.0158 µM and the Emax worked out at 106%.

On to `CCCCNC(=O)c1ccc2c(c1)N=C(c1ccc(OC)cc1)c1ccccc1S2` [drawing 887], for which the IC50 was 0.0158 µM and the Emax amounted to 112%.

In the case of `O=C(NCCc1ccc(Cl)cc1)c1ccc2c(c1)N=C(C1CCCCC1)c1ccccc1S2` [drawing 889], the IC50 is 0.0158 µM and the Emax came to 104%. `O=C(NCc1ccccc1Br)c1ccc2c(c1)N=C(N1CCCCC1)c1ccccc1S2` [drawing 890]: the IC50 is 0.2 µM and the Emax came out at 62%. `O=C(NCc1ccccn1)c1ccc2c(c1)N=C(c1cccc(Br)c1)c1ccccc1S2` [drawing 891]: the IC50 was 0.0158 µM and the Emax stood at 85%. As to `CCCNC(=O)c1ccc2c(c1)N=C(c1cccc(F)c1)c1ccccc1S2` [drawing 893], the IC50 is 0.0158 µM and the Emax is 109%. Regarding `O=C(NCc1cccnc1)c1ccc2c(c1)N=C(c1cccc(Br)c1)c1ccccc1S2` [drawing 895], the IC50 was 0.0158 µM and the Emax is 105%. The matching figures for `Cc1ccc(N2CCN(C(=O)c3ccc4c(c3)N=C(C3CCCCC3)c3ccccc3S4)CC2)c(C)c1` [drawing 896]: 0.2 µM and 103%. Take `O=C(NN1CCCCC1)c1ccc2c(c1)N=C(c1ccccc1)c1ccccc1S2` [drawing 897]: the IC50 was 0.0158 µM and the Emax worked out at 115%. The matching figures for `O=C(NCc1cccc(Cl)c1)c1ccc2c(c1)N=C(c1ccccc1)c1ccccc1S2` [drawing 899]: 0.0158 µM and 107%. For `O=C(NCc1ccc(Cl)cc1Cl)c1ccc2c(c1)N=C(c1ccc(Cl)cc1)c1ccccc1S2` [drawing 901], in that order: 0.0158 µM and 101%. For `O=C(NCCCc1ccccc1)c1ccc2c(c1)N=C(N1CCCCC1)c1ccccc1S2` [drawing 903], in that order: 0.0158 µM and 104%. As for `O=C(NCCc1ccccn1)c1ccc2c(c1)N=C(c1cccc(Cl)c1)c1ccccc1S2` [drawing 905], the IC50 was 0.0158 µM and the Emax worked out at 103%. For `CCCCNC(=O)c1ccc2c(c1)N=C(c1ccccn1)c1ccccc1S2` [drawing 907], in that order: 0.0158 µM and 100%.

(Values after patent publication US20080090805A1, “CB-1 MODULATING COMPOUNDS AND THEIR USE” (ACADIA PHARMACEUTICALS INC., priority 2005, published 2008).)
